Data published in US20120225062A1 (priority 2011, published 2012).
pEC50, pIC50: −log10 of the molar value.

Assays:
[1] = system: KMS11 (human myeloma cell line); experiment: Cell Proliferation Assay (CellTiter-Glo, 3 days); format: cell-based; conditions: KMS-11, 72 h, KMS11-luc cells
Method in brief: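 EC50 from CellTiter-Glo luminescence after 3-day, 37° C compound treatment of KMS11 cells seeded at 2000 per well in IMDM plus 10% FBS.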

Pim 3 = Pim 3 (Homo sapiens, UniProt Q86V86); experiment: Pim 3 AlphaScreen assay (high ATP)
Description: (§1) The activity of Pim 1, Pim 2, & Pim 3 is measured using a homogeneous bead based system quantifying the amount of phosphorylated peptide substrate resulting from kinase-catalyzed phosphoryl transfer to a peptide substrate. Compounds to be tested are dissolved in 100% DMSO and directly distributed to a white 384-well plate at 0.25 μl per well. […] This is followed by the addition of 5 μl/well of Pim 1, Pim 2 or Pim 3 kinase in assay buffer (concentrations described below). Final assay concentrations (described below) are in 2.5% DMSO. The reactions are performed for ˜2 hours, then stopped by the addition of 10 μl of 0.75 μg/ml anti-phospho Ser/Thr antibody (Cell Signaling), 10 μg/ml Protein A AlphaScreen beads (Perkin Elmer), and 10 μg/ml streptavidin coated AlphaScreen beads in stop/detection buffer (50 mM EDTA, 95 mM Tris, pH=7.5, 0.01% Tween-20). The stopped reactions are incubated overnight in the dark. The phosphorylated peptide is detected via an oxygen anion initiated chemiluminescence/fluorescence cascade using the Envision plate reader (Perkin Elmer).

Pim 1 = Pim 1 (Homo sapiens, UniProt P11309); experiment: Pim 1 AlphaScreen assay (high ATP)
Pim 1, sequence (P11309 whole entry): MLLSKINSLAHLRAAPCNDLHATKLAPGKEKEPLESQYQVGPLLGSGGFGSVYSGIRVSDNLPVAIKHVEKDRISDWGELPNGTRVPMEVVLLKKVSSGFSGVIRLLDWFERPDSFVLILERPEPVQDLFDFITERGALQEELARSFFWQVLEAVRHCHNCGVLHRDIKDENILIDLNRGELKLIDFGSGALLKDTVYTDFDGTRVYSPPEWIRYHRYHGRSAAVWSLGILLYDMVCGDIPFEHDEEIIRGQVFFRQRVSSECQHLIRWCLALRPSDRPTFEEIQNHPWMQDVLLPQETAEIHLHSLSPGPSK

Pim 2 = Pim 2 (Homo sapiens, UniProt Q9P1W9); experiment: Pim 2 AlphaScreen assay (high ATP)
Pim 2, sequence (Q9P1W9 whole entry): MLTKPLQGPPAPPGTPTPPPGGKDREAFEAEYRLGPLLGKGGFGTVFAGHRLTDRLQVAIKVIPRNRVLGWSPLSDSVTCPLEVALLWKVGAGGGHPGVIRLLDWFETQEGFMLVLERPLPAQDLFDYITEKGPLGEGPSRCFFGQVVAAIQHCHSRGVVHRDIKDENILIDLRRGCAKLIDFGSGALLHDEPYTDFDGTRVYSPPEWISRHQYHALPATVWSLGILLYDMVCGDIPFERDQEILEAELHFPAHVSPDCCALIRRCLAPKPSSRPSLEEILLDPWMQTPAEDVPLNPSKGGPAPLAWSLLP
Description: as §1

Structure (SMILES)	pEC50 [1]	pIC50 (Pim 3)	pIC50 (Pim 1)	pIC50 (Pim 2)
C[C@H]1C[C@@H](c2ccncc2NC(=O)c2ccc(F)c(-c3c(F)cc4c(c3F)OCC[C@@]4(C)O)n2)C[C@@H](N)[C@@H]1O [Example 238, N-(4-((1R,3R,4R,5S)-3-amino-4-hydroxy-5-methylcyclohexyl)pyridin-3-yl)-6-((R)-6,8-difluoro-4-hydroxy-4-methylchroman-7-yl)-5-fluoropicolinamide]	7.26	8.87	10.40	8.50
COCCOc1cc(F)c(-c2nc(C(=O)Nc3cnccc3N3C[C@@H](N)[C@H](O)[C@@H](C)C3)ccc2F)c(F)c1 [Example 22, N-(4-((3R,4R,5S)-3-amino-4-hydroxy-5-methylpiperidin-1-yl)pyridin-3-yl)-6-(2,6-difluoro-4-(2-methoxyethoxy)phenyl)-5-fluoropicolinamide]	8.00	9.35	10.52	8.82
CC(C)[C@@H]1C[C@H](N)C[C@H](c2ccncc2NC(=O)c2ccc(F)c(-c3c(F)cc(C(C)(C)O)cc3F)n2)C1 [Example 119, N-(4-((1R,3S,5S)-3-amino-5-isopropylcyclohexyl)pyridin-3-yl)-6-(2,6-difluoro-4-(2-hydroxypropan-2-yl)phenyl)-5-fluoropicolinamide]	7.77	9.38	11.00	8.87
C[C@@H]1C[C@H](N)C[C@H](c2ccncc2NC(=O)c2ccc(F)c(-c3c(F)cc(OCC(=O)N(C)C)cc3F)n2)C1 [Example 143, N-(4-((1R,3S,5S)-3-amino-5-methylcyclohexyl)pyridin-3-yl)-6-(4-(2-(dimethylamino)-2-oxoethoxy)-2,6-difluorophenyl)-5-fluoropicolinamide]	6.71	9.11	10.30	8.03
C[C@@H]1C[C@H](N)C[C@H](c2ccncc2NC(=O)c2ccc(F)c(-c3c(F)cc(OCC4CC4)cc3F)n2)C1 [Example 64, N-(4-((1R,3S,5S)-3-amino-5-methylcyclohexyl)pyridin-3-yl)-6-(4-(cyclopropylmethoxy)-2,6-difluorophenyl)-5-fluoropicolinamide]	7.43	9.29	11.00	8.71
C[C@H]1CN(c2ccncc2NC(=O)c2nc(-c3c(F)cc(C4COC4)cc3F)c(F)cc2N)C[C@@H](N)[C@@H]1O [Example 107, 3-amino-N-(4-((3R,4R,5S)-3-amino-4-hydroxy-5-methylpiperidin-1-yl)pyridin-3-yl)-6-(2,6-difluoro-4-(oxetan-3-yl)phenyl)-5-fluoropicolinamide]	6.80	9.51	10.70	8.99
C[C@H]1CN(c2ccncc2NC(=O)c2ccc(F)c(-c3c(F)cc([C@@H](O)CO)cc3F)n2)C[C@@H](N)[C@@H]1O [Example 234, N-(4-((3R,4R,5S)-3-amino-4-hydroxy-5-methylpiperidin-1-yl)pyridin-3-yl)-6-(4-((R)-1,2-dihydroxyethyl)-2,6-difluorophenyl)-5-fluoropicolinamide]	8.05	9.19	10.40	8.75
Cc1cc(F)c(-c2nc(C(=O)Nc3cnccc3[C@@H]3C[C@H](C)C[C@H](N)C3)c(N)cc2F)c(F)c1 [Example 222, 3-amino-N-(4-((1R,3S,5S)-3-amino-5-methylcyclohexyl)pyridin-3-yl)-6-(2,6-difluoro-4-methylphenyl)-5-fluoropicolinamide]	7.64	9.46	11.00	9.09
C[C@@H]1C[C@H](N)C[C@H](c2ccncc2NC(=O)c2nc(-c3c(F)cc(C4COC4)cc3F)c(F)cc2N)C1 [Example 241, 3-amino-N-(4-((1R,3S,5S)-3-amino-5-methylcyclohexyl)pyridin-3-yl)-6-(2,6-difluoro-4-(oxetan-3-yl)phenyl)-5-fluoropicolinamide]	7.52	9.21	10.70	8.91
C[C@H]1CN(c2ccncc2NC(=O)c2ccc(F)c(-c3c(F)cc([S@@+](C)[O-])cc3F)n2)C[C@@H](N)[C@@H]1O [Example 26, N-(4-((3R,4R,5S)-3-amino-4-hydroxy-5-methylpiperidin-1-yl)pyridin-3-yl)-6-(2,6-difluoro-4-((R)-methylsulfinyl)phenyl)-5-fluoropicolinamide]	7.38	8.66	10.30	8.73
C[C@H]1CN(c2ccncc2NC(=O)c2ccc(F)c(-c3c(F)cc(C4(O)CC4)cc3F)n2)C[C@@H](N)[C@@H]1O [Example 103, N-(4-((3R,4R,5S)-3-amino-4-hydroxy-5-methylpiperidin-1-yl)pyridin-3-yl)-6-(2,6-difluoro-4-(1-hydroxycyclopropyl)phenyl)-5-fluoropicolinamide]	7.68	9.43	10.70	9.17
C[C@@H]1C[C@H](N)C[C@H](c2ccncc2NC(=O)c2ccc(F)c(-c3c(F)cc([S@@+](C)[O-])cc3F)n2)C1 [Example 228, N-(4-((1R,3S,5S)-3-amino-5-methylcyclohexyl)pyridin-3-yl)-6-(2,6-difluoro-4-((R)-methylsulfinyl)phenyl)-5-fluoropicolinamide]	7.03	8.11	9.85	8.20
COCc1cc(F)c(-c2nc(C(=O)Nc3cnccc3[C@@H]3C[C@H](C)C[C@H](N)C3)ccc2F)c(F)c1 [Example 41, N-(4-((1R,3S,5S)-3-amino-5-methylcyclohexyl)pyridin-3-yl)-6-(2,6-difluoro-4-(methoxymethyl)phenyl)-5-fluoropicolinamide]	7.66	8.67	10.40	8.56
C[C@@H]1C[C@H](N)C[C@H](c2ccncc2NC(=O)c2ccc(F)c(-c3c(F)ccc(OC[C@H](O)CO)c3F)n2)C1 [Example 9, N-(4-((1R,3S,5S)-3-amino-5-methylcyclohexyl)pyridin-3-yl)-6-(3-((R)-2,3-dihydroxypropoxy)-2,6-difluorophenyl)-5-fluoropicolinamide]	7.14	8.96	10.40	8.40

Continued, values first:

pEC50 [1]	pIC50 (Pim 3)	pIC50 (Pim 1)	pIC50 (Pim 2)	Structure (SMILES)
7.31	8.87	10.30	8.66	C[C@H]1C[C@@H](c2ccncc2NC(=O)c2ccc(F)c(-c3c(F)cc(CC(C)(C)O)cc3F)n2)C[C@@H](N)[C@@H]1O [Example 85, N-(4-((1R,3R,4R,5S)-3-amino-4-hydroxy-5-methylcyclohexyl)pyridin-3-yl)-6-(2,6-difluoro-4-(2-hydroxy-2-methylpropyl)phenyl)-5-fluoropicolinamide]
6.86	9.10	10.52	8.56	C[C@H]1C[C@@H](c2ccncc2NC(=O)c2ccc(F)c(-c3c(F)cc(OCC4CC4)cc3F)n2)C[C@@H](N)[C@@H]1O [Example 42, N-(4-((1R,3R,4R,5S)-3-amino-4-hydroxy-5-methylcyclohexyl)pyridin-3-yl)-6-(4-(cyclopropylmethoxy)-2,6-difluorophenyl)-5-fluoropicolinamide]
6.73	8.83	10.30	8.48	CC(C)OCc1cc(F)c(-c2nc(C(=O)Nc3cnccc3[C@H]3C[C@@H](N)[C@H](O)[C@@H](C)C3)ccc2F)c(F)c1 [Example 148, N-(4-((1R,3R,4R,5S)-3-amino-4-hydroxy-5-methylcyclohexyl)pyridin-3-yl)-6-(2,6-difluoro-4-(isopropoxymethyl)phenyl)-5-fluoropicolinamide]
6.42	9.11	10.70	8.88	C[C@@H]1C[C@H](N)C[C@H](c2ccncc2NC(=O)c2ccc(F)c(-c3c(F)cc(OCC4CCOCC4)cc3F)n2)C1 [Example 177, N-(4-((1R,3S,5S)-3-amino-5-methylcyclohexyl)pyridin-3-yl)-6-(2,6-difluoro-4-((tetrahydro-2H-pyran-4-yl)methoxy)phenyl)-5-fluoropicolinamide]
6.31	8.28	10.00	7.49	N[C@H]1CCC[C@@H](c2ccncc2NC(=O)c2ccc(F)c(-c3c(F)cc(COC4CCOCC4)cc3F)n2)C1 [Example 154, N-(4-((1R,3S)-3-aminocyclohexyl)pyridin-3-yl)-6-(2,6-difluoro-4-((tetrahydro-2H-pyran-4-yloxy)methyl)phenyl)-5-fluoropicolinamide]
6.65	8.32	10.10	8.25	C[C@H]1C[C@@H](c2ccncc2NC(=O)c2ccc(F)c(-c3c(F)cc(C4(F)COC4)cc3F)n2)C[C@@H](N)[C@@H]1O [Example 136, N-(4-((1R,3R,4R,5S)-3-amino-4-hydroxy-5-methylcyclohexyl)pyridin-3-yl)-6-(2,6-difluoro-4-(3-fluorooxetan-3-yl)phenyl)-5-fluoropicolinamide]
7.00	9.02	10.52	8.74	CC(C)Oc1cc(F)c(-c2nc(C(=O)Nc3cnccc3[C@H]3C[C@@H](N)[C@@H](O)[C@@H](C)C3)ccc2F)c(F)c1 [Example 125, N-(4-((1R,3R,4S,5S)-3-amino-4-hydroxy-5-methylcyclohexyl)pyridin-3-yl)-6-(2,6-difluoro-4-isopropoxyphenyl)-5-fluoropicolinamide]
6.49	8.62	10.10	8.48	C[C@H]1C[C@@H](c2ccncc2NC(=O)c2ccc(F)c(-c3c(F)cc(COC4CCOCC4)cc3F)n2)C[C@@H](N)[C@@H]1O [Example 138, N-(4-((1R,3R,4R,5S)-3-amino-4-hydroxy-5-methylcyclohexyl)pyridin-3-yl)-6-(2,6-difluoro-4-((tetrahydro-2H-pyran-4-yloxy)methyl)phenyl)-5-fluoropicolinamide]
